Drawing on a melting point compilation (Tetko et al.; mined from patent text by program, amines drawn as free bases though some values may be those of a salt), this text covers melting point for 85 compounds.

SMILES strings stand for the structures.

Turning to `O=C(NC(Cc1ccc(OCc2ccccc2)cc1)C(=O)O)c1cn2ccc(-c3ccc(Cl)cc3)cc2n1` (stereo not given), the melting point lay in the range of 248 to 249 °C.

`O=C(CCCCN1CCOCC1)c1ccc2c(c1)C(=O)c1cc(C(=O)CCCCN3CCOCC3)ccc1-2` came in with a melting point of 146 to 148 °C.

`O=C(Nc1cccnn1)N1CCN(c2ccnc(-c3ccc(F)cc3F)c2)CC1` had a melting point of 189 to 190 °C.

Turning to `CC(C)Cn1c(=O)n(C)c(=O)c2c(SCCO)n(Cc3cccc4ccccc34)cc21`, the melting point was 138 to 141 °C.

`Nc1ncc(Cc2ccccc2)cc1Br`: the melting point is 110 to 111 °C.

`CS(=O)(=O)Nc1ccc(CCN2CCN(c3ccc(NS(C)(=O)=O)c(F)c3)CC2)cc1` showed a melting point of 232 to 234 °C.

`N#Cc1ccc(-c2ccc(NCCCC3CCCCO3)cc2)cc1` (stereo not given) had a melting point of 111 to 113 °C.

For `CCOC(Cc1ccc(OCCn2c(CC)nc(-c3ccccc3)cc2=O)cc1)C(=O)O` (stereo not given), the melting point was in the range of 140 to 142 °C.

`C1CNCCSCCNCCN1` came in with a melting point of 51 to 54 °C.

`CC(=O)SCSc1c[nH]nn1` showed a melting point of 88 to 89 °C.

`O=C(CCc1ccccc1)N[C@H](Cc1ccc(C(F)(F)F)o1)[C@@H](O)c1ccc(F)cc1` (racemic) yielded a melting point of 91 to 92 °C.

The compound `CN1C(=O)CN(c2ccc(OCc3ccccc3)cc2)NC1=O` gave a melting point of 224 to 227 °C.

For `Nc1c2c(=O)c3ccccc3c(=O)c2c(N)c2c(=O)n(CCCCCCO)c(=O)c12`, the melting point lay in the range of 210 to 211 °C.

In turn, `CCN1C(=O)C(C)(C)c2ccc(C(=O)Nc3ccc(C#N)cc3)cc21` registered a melting point of 211 to 213 °C.

`Cc1cc(COc2nn(Cc3ccccc3)cc2C(=O)O)ccc1OCc1nc(-c2ccco2)oc1C` showed a melting point of 176 to 177 °C.

For the compound `COc1ccc(OC)c(NC(=O)c2cccc3cc(O)ccc23)c1`, the melting point was 165 to 166 °C.

`O=S1(=O)c2cccc3cccc(c23)N1CCN1CCC(Cc2c[nH]c3ccc(F)cc23)CC1` displayed a melting point of 161 °C.

With `O=C1C(NCCN2CCCC2)=CC(=O)c2oc(-c3cccc(Br)c3)nc21`, the melting point lay in the range of 169 to 170 °C.

`NC(=O)c1cc(C(=O)N(CCO)CCO)cc([N+](=O)[O-])c1` had a melting point of 151 °C.

For the compound `COc1cccc(NC(=O)Nc2ccc(N3CCN(C(=O)Nc4ccc(OCCO)cc4C(F)(F)F)CC3)cc2)c1OC`, the melting point lay in the range of 135 to 138 °C.

The compound `CN(C)C1CCCN(C(=O)c2ccc(-c3[nH]nc4c3C(=O)c3c(NC(=O)NN5CCOCC5)cccc3-4)s2)C1` (stereo not given) registered a melting point above 300 °C.

`CCON=Cc1cnnc2ccccc12` registered a melting point of 78 to 81 °C.

The compound `COc1cc([N+](=O)[O-])ccc1S(=O)(=O)Nc1ccccc1C` had a melting point of 127 to 129 °C.

For the compound `O=S(=O)(Nc1ccc(Oc2cccc3cccnc23)c(Cl)c1)c1ccc(Cl)cc1`, the melting point worked out at 198 °C.

Compound `CCOC(=O)C(=CNc1ccc2nccnc2c1)C(=O)OCC` registered a melting point of 112 to 114 °C.

Compound `Cc1ccc(C(=O)NCc2ccc3c(c2)CN(C2CCC(=O)NC2=O)C3=O)cc1Cl` (stereo not given) registered a melting point of 229 to 231 °C.

In turn, `CCOC(=O)c1ccc(-c2ccc(OC)c3c2OCCO3)cc1` came in with a melting point of 141 to 142 °C.

In the case of `COc1ncccc1-c1cccn2nc(Nc3ccc(C4CCN(C(=O)OC(C)(C)C)CC4)cc3)nc12`, the melting point fell in the range of 101 to 103 °C.

`CNC(=O)C(Cc1ccc(OC)cc1)NC(=O)Nc1n[nH]c(=S)s1` (stereo not given): the melting point lay in the range of 232 to 233 °C.

Consider `CC(=O)NNC1=Nc2ccc(Cl)cc2C(c2c(F)cccc2F)=NC1`, for which the melting point is 274 to 277 °C.

Regarding `Cc1nc2c(N)nc3c(c2n1CCCCS(=O)(=O)C(C)(C)C)CCCC3`, the melting point lay in the range of 208 to 210 °C.

With `COc1ccc(C2(C#N)CCC(=O)C(C(N)=O)C2)cc1OCC1CC1` (stereo not given), the melting point was in the range of 154 to 155 °C.

`O=C(Cl)C(=O)c1cn(Cc2ccc(F)cc2)c2ccc(OCc3ccccc3)cc12` displayed a melting point of 155 to 158 °C.

As for `CC(C)OC(=O)C(=C1SC=CS1)S(=O)(=O)C(C)C`, the melting point lay in the range of 124 to 125 °C.

Turning to `CCc1ccc(S(=O)(=O)Nc2cccnc2Nc2ccccc2)cc1`, the melting point was in the range of 138 to 139 °C.

On to `O=C1CCC(=O)N1Cc1nc2sc3c(c2c(-c2ccc(Cl)cc2)c1Cl)CCN(Cc1ccccc1)C3`, for which the melting point lay within 254 to 255 °C.

For the compound `CC(C)c1ccc(S(=O)(=O)c2ccccc2)cc1S(=O)(=O)NC1CCN(C(=O)c2ccccc2)CC1`, the melting point was 225 °C.

Regarding `O=C(O)c1cn(C2CC2)c2cc(N3CCNC(CF)C3)c(F)cc2c1=O` (stereo not given), the melting point lay within 202 to 203 °C.

The compound `CCOC(=O)c1ccc(CCN(C)CCCC(C#N)(C(=O)OC)c2ccc(OC)c(OC)c2)cc1` (stereo not given) came in with a melting point of 88 to 89 °C.

For the compound `CCCCn1c(CCC)cc(=O)c(C(=O)Nc2ccccc2)c1CCC`, the melting point was 134 to 136 °C.

`O=C(NC(Cc1ccccc1)C(=O)O)OCC1c2c(c3ccccc3c3ccccc23)-c2c1c1ccccc1c1ccccc21` (stereo not given) registered a melting point of 137 to 140 °C.

Regarding `COc1ccccc1-c1cc(C(F)(F)F)nn1-c1ccc(S(N)(=O)=O)c(F)c1`, the melting point is 159 to 160 °C.

For the compound `CC(=O)CC(=O)NCC1C(NC(=O)CC(C)=O)C(C)CC1(C)C` (stereo not given), the melting point was 94 to 114 °C.

`CC1(O)CC(=O)OC(CCc2ccc(OCc3ccccc3)cc2)C1Br` (stereo not given) had a melting point of 155 to 160 °C.

For the compound `CCOC(=O)c1c(N)sc(N=Cc2cccs2)c1C(=O)OCC`, the melting point was in the range of 114 to 116 °C.

Compound `COc1ccc(-c2noc3c2C(c2cc(OC)c(OC)c(OC)c2)C2=C(COC2=O)N3)cc1` (stereo not given) gave a melting point of 218 to 219 °C.

As to `O=C(CCCCl)c1ccc2c(c1)Cc1cc(C(=O)CCCCl)ccc1S2`, the melting point was in the range of 115 to 116 °C.

On to `CC(C)(C)c1cc(NC(=O)c2cncc3cc(Oc4cc(N)ncn4)ccc23)n(-c2ccc(F)cc2)n1`, for which the melting point is 124 to 126 °C.

Compound `O=C(O)C1Sc2ccccc2-c2[nH]c3ccccc3c21` (stereo not given) came in with a melting point of 142 °C.

Compound `CC(C)NC1=NS(=O)(=O)c2sc(Br)c(Br)c2N1` gave a melting point of 250 to 251 °C.

`CN(C)CC(O)C(c1ccccc1)c1ccccc1` (stereo not given) registered a melting point of 72 to 73 °C.

Take `CSc1c(C(=O)NN2CCCCC2)nn(-c2ccc(Cl)cc2Cl)c1-c1ccc(Cl)cc1`: the melting point lay within 172 to 174 °C.

Consider `COc1ccc(OCc2cccc(C(=O)O)c2)cc1Cc1cnc(N)nc1N`, for which the melting point was determined as 140 °C.

Compound `COc1ccc2c(c1)C(O)(c1ccccn1)CC(C)(C)CO2` (stereo not given) came in with a melting point of 98 °C.

`Nc1nc(-c2ccccc2)c(-c2ccc(=O)n(Cc3ccccc3)n2)s1`: the melting point was in the range of 225 to 228 °C.

`O=[N+]([O-])c1cc(I)cc(OCc2ccccc2)c1`: the melting point lay within 79 to 80 °C.

The compound `CCOC(=O)C(Cc1ccc(OC)c(OC)c1)NC(=O)c1ccccc1` (stereo not given) returned a melting point of 82 to 83 °C.

`Clc1ccc2c(c1)Nc1cc(Cl)ccc1OCO2` showed a melting point of 194 to 196 °C.

`Nc1ccc(-c2noc(-c3cnn4c(C(F)F)cc(-c5ccc(C(F)(F)F)c(OCC(F)(F)F)c5)nc34)n2)cn1` returned a melting point of 285 °C.

`O=C(CCN1CCN(c2ncccn2)CC1)N1CC2CC3CC(C2)CC1C3` yielded a melting point of 117 to 119 °C.

In the case of `COc1ccc(C(C)(C)C)c(O)c1C(=O)Oc1ccccc1`, the melting point lay in the range of 74 to 75 °C.

The compound `CCCOc1ccc(S(=O)(=O)N2CCNCC2)cc1-c1cc2c(=O)n(C)c(=O)n(CCC)c2[nH]1` registered a melting point of 237 °C.

In the case of `COc1cc(N2CCC(N3CCN(C)CC3)CC2)ccc1Nc1ncc2ccc(-c3ccccc3S(=O)(=O)N(C)C)n2n1`, the melting point fell in the range of 198 to 205 °C.

With `COc1ccc2cc(-c3ccc(OCC(O)CNC(C)C)c(OC)c3)n(C)c(=O)c2c1` (stereo not given), the melting point is 144 to 146 °C.

In turn, `O=C(c1ccccc1)c1cccc2c1CCC2C(=O)O` (stereo not given) yielded a melting point of 100 to 102 °C.

`COc1ncc(CN2C(=O)C3(COc4cc5c(cc43)CCO5)c3ccccc32)cn1` (stereo not given) returned a melting point of 203 to 204 °C.

With `CC(C)(C)NS(=O)(=O)c1c(C(F)F)nsc1OCC(F)(F)F`, the melting point was in the range of 105 to 106 °C.

Compound `CN1CCC(=O)C(C(c2ccc(Cl)cc2)c2ccc(Cl)cc2)C1` (stereo not given) showed a melting point of 146 to 147 °C.

Compound `Nc1nc(OCC(F)(F)F)cc(C(F)(F)F)n1` came in with a melting point of 108 to 110 °C.

For `O=C1CCC(C(=O)c2ccc(Cl)cc2)N1` (stereo not given), the melting point was 174 °C.

`O=C1c2ccc(O)cc2CCC1Cc1ccccc1` (stereo not given): the melting point lay in the range of 160 to 162 °C.

In turn, `COc1ccc2c(c1)c(C)c(-c1ccc(O)cc1)n2Cc1ccc(OCCN2CCCCC2)cc1` registered a melting point of 87 to 90 °C.

`Nc1nc(SCCC(=O)c2ccccc2)c2[nH]cnc2n1` showed a melting point of 204 to 205 °C.

In the case of `O=C(OCc1ccccc1)c1ncn2c1[C@@H]1CCN1C(=O)c1c(Cl)cccc1-2`, the melting point is 180 to 182 °C.

In turn, `C=Cc1cc2c(cc1Cl)C=C(C(=O)O)C(C(F)(F)F)O2` (stereo not given) had a melting point above 200 °C.

`O=C1COC(=O)C1=Cc1ccc(C(=O)O)s1`: the melting point fell in the range of 255 to 268 °C.

`N#Cc1cc(I)c(I)[nH]1` showed a melting point of 211 to 213 °C.

Consider `CC(C)COc1ccc(-n2ncc(C(=O)O)c2Cl)cc1C#N`, for which the melting point fell in the range of 216 to 218 °C.

As to `COc1ccc2ccc(N3C(=O)c4ccccc4C3OCC(=O)NCCC(C)C)nc2n1` (stereo not given), the melting point is 136 °C.

On to `Cc1c(CO)cc(-c2ccc(S(C)(=O)=O)cc2)n1-c1ccc(F)cc1`, for which the melting point lay within 140 to 142 °C.

As for `Cc1c(Br)c(C(F)(F)F)nn1C(C)C(=O)N(C)C` (stereo not given), the melting point lay within 86 to 88 °C.

Regarding `Cc1cc(-n2ccnc2)c2cccc(OCc3c(Cl)ccc(S(=O)(=O)N4CCC[C@H]4C(=O)N4CCN(c5ccccc5)CC4)c3Cl)c2n1`, the melting point was determined as 88 °C.

On to `Nc1ncnc2c1ncn2Cc1oc2ccccc2c(=O)c1-c1ccc(F)cc1`, for which the melting point fell in the range of 212 to 216 °C.

Compound `CCCCCCCCNC(=N)NC#N` showed a melting point of 69 to 74 °C.

Regarding `c1ccc2c(c1)nnn2C(n1nnc2ccccc21)n1nnc2ccccc21`, the melting point is 194 to 195 °C.

For orientation: melting point means the temperature, or range, at which the solid turns liquid.
